Experimental data reported in patent publication US20050228180A1, “Alpha, omega-dicarboximide derivatives as useful uro-selective a1a adrenoceptor blockers” (priority 2002, published 2005).
Structures can show the parent of a compound that is named as a salt.

Legend:
[1] = biological target: T1, α1A adrenoceptor (prostate) (Rattus norvegicus, UniProt P43140); experiment: In vitro functional assay, isolated prostate, phenylepinephrine contraction; type: cell-based
T1 construct: from tissue; host or cells: isolated prostate tissue
T1 sequence (P43140 1-466): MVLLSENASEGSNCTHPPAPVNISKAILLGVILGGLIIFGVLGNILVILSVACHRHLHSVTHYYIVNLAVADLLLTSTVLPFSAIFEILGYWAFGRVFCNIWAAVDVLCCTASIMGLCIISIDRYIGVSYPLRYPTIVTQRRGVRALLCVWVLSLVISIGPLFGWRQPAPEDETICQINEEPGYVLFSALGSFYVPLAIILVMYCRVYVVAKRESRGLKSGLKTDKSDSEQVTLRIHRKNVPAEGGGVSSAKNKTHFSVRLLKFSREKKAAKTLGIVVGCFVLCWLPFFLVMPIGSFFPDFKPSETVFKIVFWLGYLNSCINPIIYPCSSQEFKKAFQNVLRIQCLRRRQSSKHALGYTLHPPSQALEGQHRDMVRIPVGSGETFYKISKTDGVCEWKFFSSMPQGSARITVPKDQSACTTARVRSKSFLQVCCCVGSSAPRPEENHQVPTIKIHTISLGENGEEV
Procedure, shortened: (§1)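 Rat aorta, spleen and prostate strips from urethane-anaesthetised male Wistar rats in Krebs-Henseleit at 37 °C (95% O2/5% CO2), 2 g or 1 g resting tension, 2 h equilibration. Norepinephrine (aorta) or phenylephrine (spleen, prostate) contraction curves run without and with compound at […]; antagonist affinity given as pKB.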

α1D adrenoceptor (aorta) = biological target: T2, α1D adrenoceptor (aorta) (Rattus norvegicus, UniProt P23944); experiment: In vitro functional assay, isolated aorta, norepinephrine contraction; type: cell-based; settings: read-out: α Adrenoceptor Subtype (pKB) α1D (converted)
T2 construct: Isolated tissues were mounted in organ bath containing Krebs Henseleit buffer; from tissue; host or cells: isolated rat aorta
T2 sequence (P23944 1-561): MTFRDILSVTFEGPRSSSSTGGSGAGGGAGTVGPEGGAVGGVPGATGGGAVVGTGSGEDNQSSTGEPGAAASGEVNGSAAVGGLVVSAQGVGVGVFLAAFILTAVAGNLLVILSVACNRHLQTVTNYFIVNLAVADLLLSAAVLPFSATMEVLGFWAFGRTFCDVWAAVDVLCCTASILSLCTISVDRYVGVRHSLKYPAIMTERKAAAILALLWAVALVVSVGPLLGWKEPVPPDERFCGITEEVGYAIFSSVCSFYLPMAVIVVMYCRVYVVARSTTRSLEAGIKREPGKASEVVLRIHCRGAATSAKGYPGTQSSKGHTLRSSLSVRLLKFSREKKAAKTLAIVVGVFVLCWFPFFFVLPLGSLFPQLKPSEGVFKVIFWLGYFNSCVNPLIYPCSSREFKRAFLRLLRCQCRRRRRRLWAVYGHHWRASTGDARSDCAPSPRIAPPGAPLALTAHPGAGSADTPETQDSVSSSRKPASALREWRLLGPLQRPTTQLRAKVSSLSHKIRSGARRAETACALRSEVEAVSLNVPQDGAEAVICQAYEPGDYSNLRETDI
Procedure, shortened: as §1

α1A adrenoceptor = biological target: T3, α1A adrenoceptor (Rattus norvegicus, UniProt P43140); experiment: Radioligand binding, [3H] prazosin displacement, rat submaxillary membranes
T3 construct: from tissue; host or cells: rat submaxillary gland membranes
T3 sequence (P43140 1-466): T1 sequence (P43140 1-466)
Procedure, shortened: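 Rat membranes (submaxillary for α1A, liver for α1B; 150-250 μg protein) incubated with [3H]prazosin and compound in Tris 50 mM/EDTA 5 mM pH 7.4, 1 h at 24-25° C. Nonspecific binding with 300 nM prazosin; filtration, counting; Ki via Cheng–Prusoff.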

Q: Which results are given for CC(C)Oc1ccccc1N1CCN(CCCN2C(=O)C3CC(O)C(O)CC3C2=O)CC1 (stereo not drawn) [Compound No. 23, 2-[3-{4-(2-Isopropoxyphenyl)piperazin-1-yl}propyl]-5,6-dihydroxy-3a,4,5,6,7,7a, hexahydro-1H-isoindole-1,3(2H)-dione-hydrochloride]?
A: Selectivity α1B/α1A ([1]; functional, from pKB): 5; Selectivity α1D/α1A ([1]; functional, from pKB): 5.6; Kb ([1]; rat prostate, phenylepinephrine, read-out: α Adrenoceptor Subtype (pKB) α1A (converted)): 1.48 nM; Kb (α1D adrenoceptor (aorta)): 8.32 nM; Ki (α1A adrenoceptor; [3H] prazosin displacement, rat submaxillary membranes, read-out: Affinity (Ki) α1A (Rat Submaxillary)): 0.98 nM; α1B/α1A (α1A adrenoceptor; ratio of binding affinities, rat liver / rat submaxillary): 130
